Measured values from patent publication US20230032623A1, “Tumor-on-a-chip” (NEW YORK UNIVERSITY, priority 2021, published 2023).
“Also recorded” adds a separate entry of the source.

Key:
Type in all cases: cell-based, human
PD-L1 = assay: qPCR analysis of PD-L1 expression in TAM and GBM cell
Protocol: Control groups were treated with fresh cell culture media supplemented with DMSO (0.01%) and human IgG4 isotype control antibody (1 μg/mL, BioLegend). Fresh cell culture media supplemented anti-PD-1 and anti-CSF-1R antibodies was loaded in the microfluidic channels 2 hr after loading allogeneic CD8+ T-cells. Blocking media was freshly prepared and replenished every 24 hr for 3 days.
RNA was extracted using RNeasy Plus Mini Kit (Qiagen, US), and cDNA was synthesized from the mRNA using SuperScript IV VILO Master Mix for RT-RCR (Invitrogen, US), followed by real-time PCR using a SYBR Green PCR Master Mix (Thermo Fisher Scientific, US) and QuantStudio six sequence detection system (Applied Biosystems, Thermo Fisher Scientific). The reactions were performed with the following cycling conditions: 95° C. for 10 min followed by 40 cycles of 95° C. for 15 s and 60° C. for 1 min. GAPDH was used as a housekeeping gene for normalization. All experiments were repeated three times. The relative change in gene expression was analyzed with the 2^−ΔΔCT method. […]

[1] = tested on: patient-derived GBM cells; assay: Quantification of GBM cell apoptosis (caspase-3/7 activation) in GBM-on-a-Chip; conditions: BLZ945 0.1 μg/ml, nivolumab 1 μg/ml, mono or dual; for GBM cell apoptosis with presence of microglia versus macrophage only system: HMC3 microglia present, PN, CL, MES GBM
Protocol: (§1) Patient-derived GBM cells were firstly dissociated with Accutase (Innovative Cell Technologies), and then labeled with CellTracker Red (5 μM, C34552, Thermo Fisher-Scientific) as per the manufacturer's instructions. TAMs and GBM cells were then mixed with a number ratio of 1:2 at a cell density of 1×10^8 cells/mL in the brain tissue-mimicking hydrogel. The final cell numbers of GBM and TAMs were about 1×10^5 cells per chip. […] Hydrogel solution was then quickly flushed into the hydrogel loading channel, and then incubated in an incubator at 37° C. and 5% CO2 for 30 min for complete gelation. After incubation, the media infusion channel and the vascular-seeding channel was flushed with fresh cell culture media for 2 hr. HBMVECs labeled with DiD (5 μM, V22887, Thermo Fisher-Scientific) were seeded into the vascular-seeding channel at a density of 5×10^6 cells/mL, and incubated at 37° C. and 5% CO2 overnight with fresh cell culture media. To form the vascular lumens, the microfluidic chip was flipped every 15 mins for 2 hr to let HBMVECs to uniformly attach to the vascular-seeding channel. After 24 hr′ incubation, IL-2 activated allogeneic CD8+ T-cells were firstly labeled with CellTracker Green (5 μM, C2925, Thermo Fisher-Scientific) and loaded into the vascular channel at a total cell number of 1×10^6 cells per chip. After culture in the incubator for 1-3 days, live cell images of different cell compartments were captured by an inverted fluorescent microscope (Zeiss Axio Observer.Z1).
To examine the apoptosis of GBM cells in the microfluidic model, CellEvent Caspase-3/7 Green Detection Reagent (R37111, Thermo Fisher-Scientific) and Hoechst 33342 (5 μg/mL; H3570, Thermo Fisher-Scientific) were used to distinguish the apoptotic cells that with activated caspase-3/7 with bright green nuclei. […] The ratio of apoptotic GBM cells were calculated as the number of cells with green nuclei to the total number of GBM cells that were stained with CellTracker Red (5 μM, C34552, Thermo Fisher-Scientific). […]

allogeneic CD8+ T-cells [2] = assay: CD8+ T-cell activation analysis (CD154 expression) in GBM-on-a-Chip; conditions: BLZ945 0.1 μg/ml, nivolumab 1 μg/ml, mono or dual, 3 days
Protocol: To characterize the expression of surface marks on GBM cell, CD8+ T-cell and TAM, cells were firstly recovered with Corning Cell Recovery Solution (Corning, N.Y., USA) from the brain tissue-mimicking hydrogel. Briefly, cell culture medium was aspirated, and the microfluidics chip was rinsed with cold 1× PBS twice, 10 min per round. PDMS slabs were detached from the cover glass in the microfluidics chip, followed by incubation with Corning Cell Recovery Solution on ice for 30 min. With gently pipetting the channel containing cells, the cell suspension was centrifuged, washed with cold 1 x PBS twice and then resuspended in 5% BSA blocking buffer. All cell samples were fixed in 4% paraformaldehyde (PFA) (Sigma-Aldrich) for 10 min at room temperature. […] To quantify PD-1 expression on CD8+ T-cell, cells were first incubated with PD-1 primary antibody (367402, Biolegend) for 1 hr, and then visualized with Alexa Fluor 488 conjugated goat anti-mouse IgG secondary antibodies (Invitrogen, 5 μg/mL). […] PD-1 and CD154 expressions on CD8+ T-cell, PD-L1 and CD163 expressions on macrophage were quantified based on the mean florescent intensity of cell staining using ImageJ (NIH). Alternatively, ratios of CD154+ or CD163+-cells were calculated relative to CD8+ cells or CD68+ cells, respectively. […]

allogeneic CD8+ T-cells [3] = assay: Allogeneic CD8+ T-cell extravasation/infiltration across brain microvessels in GBM-on-a-Chip; conditions: BLZ945 0.1 μg/ml, nivolumab 1 μg/ml, mono or dual, every 24 hr for 3 days, PN, CL, MES GBM
Protocol: as §1
Infiltrated CD8+ T-cells were defined as the CD8+ T-cells migrating out of vascular lumens. To quantify the migration behaviors of those CellTracker Green-labeled allogeneic CD8+ T-cells, time-lapsed image stacks were acquired every minute for 2 hr and at least three positions in each microfluidic chip. The cell centroids at different time points of the same cell were then used to calculate the cell migration speed and linked up to represent the migration trajectories by using ImageJ (NIH). The mean migration speeds were then averaged for all infiltrated cells. […]

[4] = tested on: tumor-associated macrophages (TAMs); assay: CD163 (M2-like marker) expression on TAM in GBM-on-a-Chip, immunostaining and qPCR
Protocol: U937 monocytes were polarized into macrophages with treatments of 5 nM PMA (Sigma-Aldrich) for 24 hr (Shi Y et al., Nature communications. 2017 Jun. 1; 8(1):1-7). Biomimetic TAMs (CD68+CD163+) were obtained by culturing U937-derived macrophages in complete culture media supplemented with supernatants of patient-derived GBM cells (5×10^5 cells/mL) which were collected after 3 days' culture and centrifuged at 2000×g for 10 min at 4° C. to remove cell debris. Cryopreserved human PBMCs (10HU-003, iXCells Biotechnologies) were thawed and cultured in RPMI-1640 medium (Gibco) supplemented with 10% FBS (Gibco) and 1% penicillin/streptomycin (Gibco) overnight before sorting for CD8+ T-cells. Allogeneic CD8+ T-cells were isolated from PBMCs via negative selection using MojoSort Human CD8 T-Cell Isolation Kit (MojoSort, 480011, Biolegend) as per the manufacturer's protocol (FIG. 7A through FIG. 7D). […]
To characterize the expression of surface marks on GBM cell, CD8+ T-cell and TAM, cells were firstly recovered with Corning Cell Recovery Solution (Corning, N.Y., USA) from the brain tissue-mimicking hydrogel. […] To quantify PD-1 expression on CD8+ T-cell, cells were first incubated with PD-1 primary antibody (367402, Biolegend) for 1 hr, and then visualized with Alexa Fluor 488 conjugated goat anti-mouse IgG secondary antibodies (Invitrogen, 5 μg/mL). […]

| Compound | PD-L1 expression in TAM and GBM cells (PD-L1; BLZ945 0.1 μg/ml alone, qPCR) | mRNA expression of PD-L1 in GBM cell (PD-L1; BLZ945 0.1 μg/ml, GBM cells co-cultured with TAM) | GBM cell apoptosis (caspase-3/7 activation) ([1]; 3 days, macrophage-only system) | GBM cell apoptosis with presence of microglia versus macrophage only system [1] | CD8+ T-cell activation (CD154 expression, CD154+CD8+ T-cells) (allogeneic CD8+ T-cells [2]) | Allogeneic CD8+ T-cell extravasation / infiltrated CD8+ T-cells (allogeneic CD8+ T-cells [3]) | Allogeneic CD8+ T-cell extravasation / infiltrated CD8+ T-cells (allogeneic CD8+ T-cells [3]; listed as CSF-1R inhibitor) | M2-like marker CD163 expression on TAM / macrophage polarization toward M2 phenotype ([4]; BLZ945 0.1 μg/ml every 24 hr for 3 days, PN (GBML20), CL (GBML08), MES (GBML91) GBM subtypes) | CD163 expression in TAM by qPCR ([4]; BLZ945 0.1 μg/ml, qPCR) |
| --- | --- | --- | --- | --- | --- | --- | --- | --- | --- |
| CNC(=O)c1cc(Oc2ccc3nc(N[C@@H]4CCCC[C@H]4O)sc3c2)ccn1 [BLZ945] | no significant change in PD-L1 expression for both TAM and GBM cells | did not change the PD-L1 expression in GBM cells | limited effect on tumor apoptosis | no significant difference with the GBM and macrophage only condition | did not significantly reverse the immunosuppression onto the cytotoxic CD8+ T-cell | can significantly enhance allogeneic CD8+ T-cell extravasation across brain microvessels | increased allogeneic CD8+ T-cell infiltration in the tumor | suppressed the polarization of macrophages toward an immunosuppressive M2 phenotype in all three GBM subtypes with more significant CD163 marker suppression in the CL and MES GBM subtypes relative to the PN GBM; also recorded: limited expression of CD163 in all GBM subtypes | inhibition of CD163 expression in TAM |
| nivolumab: human IgG4 anti-PD-1 monoclonal antibody; PD-1 blockade |  |  |  | no significant difference with the GBM and macrophage only condition | did enhance CD8+T-cell activation in the PN and MES GBMs | did not increase the extravasation of allogeneic CD8+ T-cell |  |  |  |
